In patent US6653478B2, “Substituted benzimidazol-2-ones as vasopressin receptor antagonists and neuropeptide Y modulators” (Ortho-McNeil Pharmaceutical, Inc., priority 2000, dated 2003):

How the values were obtained:
Set-up in all cases: expressed in transfected cells; host or cells: HEK-293 (membranes)
[1] = biological target: human V1a receptor (Homo sapiens, UniProt P37288); experiment: V1a binding assay (3H-AVP displacement, HEK-293 membranes); conditions: for inhibition at 1 µM: 1.0 μM compound, read-out: V1a@1.0, % Inh
human V1a receptor, sequence (P37288 whole entry): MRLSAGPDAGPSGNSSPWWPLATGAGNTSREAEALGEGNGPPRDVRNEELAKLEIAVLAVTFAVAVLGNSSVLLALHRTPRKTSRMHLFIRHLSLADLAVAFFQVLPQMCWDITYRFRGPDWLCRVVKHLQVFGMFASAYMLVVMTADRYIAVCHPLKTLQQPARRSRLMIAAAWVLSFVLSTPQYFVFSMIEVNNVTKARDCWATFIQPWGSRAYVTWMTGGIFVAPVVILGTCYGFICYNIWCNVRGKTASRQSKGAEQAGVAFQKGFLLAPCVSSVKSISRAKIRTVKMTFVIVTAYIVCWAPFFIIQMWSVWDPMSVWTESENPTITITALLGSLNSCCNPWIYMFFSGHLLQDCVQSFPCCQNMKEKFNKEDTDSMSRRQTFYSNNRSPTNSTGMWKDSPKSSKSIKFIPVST
Procedure: (§1) V1a, V1b or V2 Binding Assay
(§2) Receptor binding studies were performed using recombinant human V1a, V1b or V2 receptors. Cellular membranes were harvested from HEK-293 cells transfected to express either the V1a, V1b or V2 receptors. Compounds were evaluated for their ability to displace ^3H-arginine vasopressin (^3H-AVP; specific activity 40-87 Ci/mmol; NEN Life Sciences, Boston, Mass.). Compounds were solubilized in dimethylsulfoxide (DMSO) and diluted to working concentration of 10% DMSO with assay buffer (50 mM Tris, 5 mM MgCl2, 0.1% BSA, pH 7.5). Assay buffer was supplemented with several protease inhibitors (1 mM Pefabloc, 5 μg/ml aprotinin/leupeptin/pepstatin A, 50 μg/ml bacitracin; Sigma Chemical, St. Louis, Mo.). Non-specific binding was determined using 1.25 μM arginine vasopressin (AVP; Peninsula Labs, Belmont, Calif.). Assay reagents and test compounds were added to 96-well round bottom polypropylene plates (145 μl buffer, 5 μl compound in 10% DMSO, 25 μl buffer containing 10,000 cpm tracer, 25 μl cell membrane). After incubation for 1 hour at room temperature, the well contents were aspirated across a Unifilter GF/C plate (Packard Instrument, Downers Grove, Ill.) which had been presoaked in 0.3% polyethyleneimine to prevent peptide sticking. The wells were washed repeatedly with cold saline containing 0.05% Tween 20. The plate was then dried and 25 μl Microscint-20 cocktail (Packard Instruments) added to each well. The plates were sealed and counted on a TopCount scintillation counter (Packard Instruments) using quench correction.

[2] = biological target: T1, human V1b receptor (Homo sapiens, UniProt P47901); experiment: V1b binding assay (3H-AVP displacement, HEK-293 membranes); conditions: for inhibition at 1 µM: 1.0 μM compound, read-out: V1b@1.0, % Inh
T1 sequence (P47901 1-424): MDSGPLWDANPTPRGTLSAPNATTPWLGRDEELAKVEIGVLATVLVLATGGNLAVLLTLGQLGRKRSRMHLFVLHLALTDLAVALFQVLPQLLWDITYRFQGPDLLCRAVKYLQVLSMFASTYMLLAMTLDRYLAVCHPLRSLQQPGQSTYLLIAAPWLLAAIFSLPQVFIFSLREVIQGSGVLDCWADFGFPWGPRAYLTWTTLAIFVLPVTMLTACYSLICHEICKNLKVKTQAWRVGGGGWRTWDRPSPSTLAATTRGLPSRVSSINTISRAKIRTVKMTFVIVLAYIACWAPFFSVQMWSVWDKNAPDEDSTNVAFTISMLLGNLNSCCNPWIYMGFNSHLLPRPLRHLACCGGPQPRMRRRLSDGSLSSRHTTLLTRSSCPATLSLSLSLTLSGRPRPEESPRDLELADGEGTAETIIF
Procedure: as §1, §2

[3] = biological target: human V2 receptor (Homo sapiens, UniProt P30518); experiment: V2 binding assay (3H-AVP displacement, HEK-293 membranes); conditions: 1.0 μM compound; read-out: V2@1.0, % Inh
human V2 receptor, sequence (P30518 whole entry): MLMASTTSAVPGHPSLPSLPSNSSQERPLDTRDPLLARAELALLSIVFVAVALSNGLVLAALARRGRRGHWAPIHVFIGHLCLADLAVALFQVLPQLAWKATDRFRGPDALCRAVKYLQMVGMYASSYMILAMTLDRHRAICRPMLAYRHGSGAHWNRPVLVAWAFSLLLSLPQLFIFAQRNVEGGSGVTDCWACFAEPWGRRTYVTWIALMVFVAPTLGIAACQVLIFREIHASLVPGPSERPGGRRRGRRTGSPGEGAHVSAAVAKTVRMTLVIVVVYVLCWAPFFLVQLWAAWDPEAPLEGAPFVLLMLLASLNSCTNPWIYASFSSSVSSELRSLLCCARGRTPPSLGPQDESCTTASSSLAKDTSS
Procedure: as §1, §2

Row | SMILES | IC50 [1] [nM] | IC50 [2] [nM] | inhibition at 1 µM [3] [%] | inhibition at 1 µM [1] [%] | inhibition at 1 µM [2] [%]
1 | O=c1n(CCCN2CCCCC2)c2ccccc2n1C1CCN(C(=S)NC2c3ccccc3-c3ccccc32)CC1 [Compound 131, 1-[(N1-piperidinocarbothioylfluorenylamino)-4-yl]-3-(3-N-piperidinylpropyl)-1,3-dihydrobenzimidazol-2-one] | 48 |  | 0 |  | 62
2 | CCCC1CCN(CCCn2c(=O)n(C3CCN(C(=S)NC(c4ccccc4)c4ccccc4)CC3)c3ccccc32)CC1 [Compound 122, 1-[(N1-piperidinocarbothioylbiphenylmethylamino)-4-yl]-3-(4-propylpiperidin-1-yl-propyl)-1,3-dihydrobenzimidazol-2-one] | 52 | 250 | 0 |  | 70
3 | O=c1n(CCCN2CCCCC2)c2ccccc2n1C1CCN(C(=S)N[C@]23C[C@H]4C[C@H](C[C@H](C4)C2)C3)CC1 [Compound 129, 1-[(N1-piperidinocarbothioyl-1-adamantylamino)-4-yl]-3-(3-N-piperidinylpropyl)-1,3-dihydrobenzimidazol-2-one] | 73 |  | 3 |  | 53
4 | CC(C)c1ccccc1NC(=S)N1CCC(n2c(=O)n(CCCN3CCCCC3)c3ccccc32)CC1 [Compound 132, 1-[(N1-piperidinocarbothioyl-2-isopropylphenylamino)-4-yl]-3-(3-N-piperidinylpropyl)-1,3-dihydrobenzimidazol-2-one] |  |  | 0 | 66 | 55
5 | CC(C)c1ccccc1NC(=O)N1CCC(n2c(=O)n(CCCN3CCCCC3)c3ccccc32)CC1 [Compound 138] |  |  | 0 | 58 | 21
6 | CC(CN1CCCCC1)Cn1c(=O)n(C2CCN(C(=O)NC(c3ccccc3)c3ccccc3)CC2)c2ccccc21 (stereo not shown) [Compound 147] | 440 |  | 1 |  | 27
7 | O=c1n(CCCN2CCCCC2)c2ccccc2n1C1CCN(C(=S)NC(c2ccccc2)(c2ccccc2)c2ccccc2)CC1 [Compound 126, 1-[(N1-piperidinocarbothioyltriphenylmethylamino)-4-yl]-3-(3-N-piperidinylpropyl)-1,3-dihydrobenzimidazol-2-one] |  |  | 0 | 0 | 0
8 | O=c1n(CCCC2CCCCC2)c2ccccc2n1C1CCN(C(=S)NC(c2ccccc2)c2ccccc2)CC1 [Compound 134, 1-[(N1-Piperidinocarbothioyldiphenylmethylamino)-4-yl]-3-(3-cyclohexylpropyl)-1,3-dihydro-benzimidazol-2-one] | 450 |  | 0 |  | 37
9 | CCCN(CCC)CCCn1c(=O)n(C2CCN(C(=O)NC(c3ccccc3)c3ccccc3)CC2)c2ccccc21 [Compound 80, 1-[(N1-piperidinocarbonylbiphenylmethylamino)-4-yl]-3-(3-N,N-dipropylaminopropyl)-1,3-dihydrobenzimidazol-2-one] | 170 |  | 11 |  | 38
10 | CCCNC(=S)N1CCC(n2c(=O)n(CCCN3CCCCC3)c3ccccc32)CC1 [Compound 128, 1-[(N1-piperidinocarbothioylpropylamino)-4-yl]-3-(3-N-piperidinylpropyl)-1,3-dihydrobenzimidazol-2-one] |  |  | 0 | 12 | 31
11 | COc1ccc(C(NC(=S)N2CCC(n3c(=O)n(CCCN4CCCCC4)c4ccccc43)CC2)c2ccc(OC)cc2)cc1 [Compound 136] | 79 |  | 25 |  | 50
12 | CC(CN1CCCC1)Cn1c(=O)n(C2CCN(C(=S)NC(c3ccccc3)c3ccccc3)CC2)c2ccccc21 (stereo not shown) [Compound 148] | 53 |  | 1 |  | 40
13 | CN1CCN=C1NCCCn1c(=O)n(C2CCN(C(=S)NC(c3ccccc3)c3ccccc3)CC2)c2ccccc21 [Compound 144] | 395 |  | 2 |  | 31
14 | O=c1n(CCCNCC2CCCCC2)c2ccccc2n1C1CCN(C(=S)NC(c2ccccc2)c2ccccc2)CC1 [Compound 88, 1-[(N1-piperidinocarbothioylbiphenylmethylamino)-4-yl]-3-(3-cyclohexylmethylaminopropyl)-1,3-dihydrobenzimidazol-2-one] | 36 | 1000 | 3 |  | 
15 | O=c1n(CCCN2CCC2)c2ccccc2n1C1CCN(C(=S)NC(c2ccccc2)c2ccccc2)CC1 [Compound 140] |  |  | 0 | 59 | 28

Second part, the compound after the results:

Row | IC50 [1] [nM] | IC50 [2] [nM] | inhibition at 1 µM [3] [%] | inhibition at 1 µM [1] [%] | inhibition at 1 µM [2] [%] | SMILES
16 | 80 | 680 | 6 |  |  | O=c1n(CCCN2CCC(N3CCCCC3)CC2)c2ccccc2n1C1CCN(C(=S)NC(c2ccccc2)c2ccccc2)CC1 [Compound 170]
17 |  |  | 0 | 38 | 16 | O=C(Cc1ccc(N2CCCC2)cc1)n1c(=O)n(C2CCN(C(=S)NC(c3ccccc3)c3ccccc3)CC2)c2ccccc21 [Compound 150]
18 | 108 |  | 2 |  | 40 | O=c1n(CCCN2CCCCC2)c2ccccc2n1C1CCN(C(=S)Nc2ccccc2-c2ccccc2)CC1 [Compound 161]
19 | 117 |  | 4 |  | 26 | O=C(Nc1ccccc1-c1ccccc1)N1CCC(n2c(=O)n(CCCN3CCCCC3)c3ccccc32)CC1 [Compound 162]
20 |  |  | 2 | 65 | 33 | Cc1ccc2c(c1)n(CCCN1CCCCC1)c(=O)n2C1CCN(C(=O)NC(c2ccccc2)c2ccccc2)CC1 [Compound 171]
21 |  |  | 6 | 5 | 0 | O=C1OCCC1NC(=S)N1CCC(n2c(=O)n(CCCN3CCCCC3)c3ccccc32)CC1 (stereo not shown) [Compound 157]
22 |  |  | 5 | 28 | 10 | O=c1n(CCCN2CCCCC2)c2ccccc2n1C1CCN(C(=S)Nc2ccc3c(c2)CCC3)CC1 [Compound 155]
23 |  |  | 2 | 62 | 25 | O=c1n(CCCN2CCCCC2)c2ccccc2n1C1CCN(C(=S)NCc2cccnc2)CC1 [Compound 168]
24 |  |  | 19 | 5 | 16 | CSC(=O)NC(=N)N1CCC(n2c(=O)n(CCCN3CCCCC3)c3ccccc32)CC1 [Compound 166]
25 |  |  | 0 | 62 | 37 | Cc1ccccc1CNC(=O)N1CCC(n2c(=O)n(CCCN3CCCCC3)c3ccccc32)CC1 [Compound 151]
26 | 230 |  | 2 |  | 38 | O=C(NC1c2ccccc2-c2ccccc21)N1CCC(n2c(=O)n(CCCN3CCCCC3)c3ccccc32)CC1 [Compound 152]
27 |  |  | 0 | 2 | 10 | O=c1n(CCCN2CCCCC2)c2ccccc2n1C1CCN(C(=S)NCC2CCCO2)CC1 (stereo not shown) [Compound 159]
